Assay results as given in patent publication US10668055B2, “Cancer treatment using combinations of ERK and RAF inhibitors” (BIOMED VALLEY DISCOVERIES, INC., priority 2013, dated 2020).
Like-named read-outs stand apart in the source and are kept apart here.

Columns and labels:
G-361 = assay: Single agent proliferation assay (CellTiter-Glo, 72 h); format: cell-based; conditions: G-361, 72 h
Method: (§1) Cells were seeded in 96-well plates at the densities and media conditions indicated in Table 17 and allowed to adhere overnight prior to addition of compound or vehicle control. Compounds were prepared from DMSO stocks to give the desired final concentrations. The final DMSO concentration was constant at 0.1%. Test compounds were incubated with the cells for 72 h at 37° C., 5% CO2 in a humidified atmosphere. CellTiter-Glo® reagent (Promega, Madison, Wis.) was added according to manufacturer's instructions and luminescence detected using the BMG FLUOstar plate reader (BMG Labtech, Ortenberg, Germany). The average media only background value was deducted and the data analysed using a 4-parameter logistic equation in GraphPad Prism (GraphPad Software, La Jolla, Calif.).

A375 cells [1] = assay: Combination study, 10×8 dose matrix, Alamar Blue / CellTiter-Glo, Bliss additivity model; format: cell-based, human; conditions: single agent
Method: For combination studies, A375 cells (ATCC) were seeded into triplicate 96-well plates at a cell density of 3000 cells/well in DMEM plus 10% FBS and allowed to adhere overnight prior to addition of test compound or vehicle control. Combinations were tested using a 10×8 dose matrix with a final DMSO concentration of 0.2%. A 96 hour assay incubation period followed, with subsequent addition of Alamar Blue 10% (v/v) and 4 hours incubation prior to reading on a fluorescent plate reader. After reading Alamar Blue, the medium/Alamar Blue mix was flicked off and 100 μl of CellTiter-Glo/PBS (1:1) added and the plates processed as per the manufacturer's instructions (Promega). Media only background values were subtracted before the data was analysed. The Bliss additivity model was then applied.
In brief, predicted fractional inhibition values for combined inhibition were calculated using the equation Cbliss=A+B−(A×B) where A and B are the fractional inhibitions obtained by drug A alone or drug B alone at specific concentrations. Cbliss is the fractional inhibition that would be expected if the combination of the two drugs were exactly additive. Cbliss values are subtracted from the experimentally observed fractional inhibition values to give an ‘excess over Bliss’ value. Excess over Bliss values greater than 0 indicate synergy, whereas values less than 0 indicate antagonism. […]

[2] = test system: melanoma xenograft model derived from biopsies obtained from a patient; assay: Melanoma xenograft model derived from patient biopsies after progression on vemurafenib; format: in vivo; conditions: model with acquired cross-resistance
[3] = A375 in vivo study: toxicity (body weight, deaths, side effects)
Excerpt: Animals were weighed daily on Days 1-5, then twice per week until completion of the study. […] Individual body weight loss was monitored as per protocol, and any animal that exceeded the limits for acceptable body weight loss was euthanized. Group mean body weight loss also was monitored as per protocol. Dosing was to be suspended in any group that exceeded the limits for acceptable mean body weight loss. If mean body weight recovered, then dosing was to be resumed in that group, but at a lower dosage or less frequent dosing schedule.
Acceptable toxicity for the maximum tolerated dose (MTD) was defined as a group mean body-weight loss of less than 20% during the study and not more than 10% treatment-related (TR) deaths. […] A death was classified as non-treatment-related (NTR) if there was no evidence that death was related to treatment side effects. NTR deaths were further characterized based on cause of death. A death was classified as NTRa if it resulted from an accident or human error. […] A death was classified as NTRu if the cause of death was unknown and there was no available evidence of death related to treatment side effects, metastasis, accident or human error, although death due to treatment side effects cannot be excluded.

[4] = test system: A375 human melanoma xenograft; assay: A375 in vivo study: tumor growth delay and regression responses; set-up: species or system athymic nude mice
Method: Female athymic nude mice (Crl:NU(Ncr)-Foxn/^nu, Charles River) were nine weeks old with a body weight (BW) range of 17.5 to 26.2 grams on Day 1 of the study. The animals were fed ad libitum water (reverse osmosis, 1 ppm CI), and NIH 31 Modified and Irradiated Lab Diet® consisting of 18.0% crude protein, 5.0% crude fat, and 5.0% crude fiber. The mice were housed on irradiated Enrich-o'cobs™ Laboratory Animal Bedding in static microisolators on a 12-hour light cycle at 20-22° C. (68-72° F.) and 40-60% humidity. The recommendations of the Guide for Care and Use of Laboratory Animals with respect to restraint, husbandry, surgical procedures, feed and fluid regulation, and veterinary care were complied with.
Tumor xenografts were initiated with A375 human melanomas by serial subcutaneous transplantation in athymic nude mice. On the day of tumor implant, each test mouse received a 1 mm^3 A375 fragment implanted subcutaneously in the right flank, and tumor growth was monitored as the average size approached the target range of 80 to 120 mm^3. Tumors were measured in two dimensions using calipers, and volume was calculated using the formula: […]
Ten days after tumor implantation, designated as Day 1 of the study, the animals were sorted into nine groups (Groups 1-9) each consisting of fifteen mice and one group (Group 10) consisting of ten mice. Individual tumor volumes ranged from 75 to 144 mm^3 and group mean tumor volumes were 110 or 111 mm^3.
On Day 1 of the study, mice were sorted into nine groups (Group 1-9) each consisting of fifteen mice and one group (Group 10) consisting of ten mice, and dosing was initiated according to the treatment plan summarized in Table 15 below. Each dose was given by oral gavage (p.o.) in a dosing volume of 10 mL/kg (0.2 mL per 20 grams of body weight), scaled to the body weight of each individual animal. The vehicle and dabrafenib doses were to be given once daily until study end (qd to end), whereas the BVD-523 doses were to be given twice daily until study end (bid to end). For bid dosing, dosing was initiated in the afternoon on Day 1, so that one dose was given on the first day (“first day 1 dose”).
Due to the striking response to combination treatment, dosing in Groups 2-5 was stopped on Day 20 in order to monitor tumor re-growth. Dosing was to be re-initiated in a group when the mean tumor burden reached 1000 mm^3. By Day 42, the 1000 mm^3 mean tumor burden had not been reached in any of the combination groups. Dosing was re-initiated to permit post-final dose serum and tumor sampling for pharmacokinetic analyses. […] The final dosing schedules are shown below in Table 16.
Tumors were measured using calipers twice per week, and each animal was euthanized when its tumor reached the pre-determined tumor volume endpoint of 2000 mm^3 or on the final day, whichever came first. Animals that exited the study for tumor volume endpoint were documented as euthanized for tumor progression (TP), with the date of euthanasia. The time to endpoint (TTE) for analysis was calculated for each mouse by the following equation:
[formula] where TTE is expressed in days, endpoint volume is expressed in mm^3, b is the intercept, and m is the slope of the line obtained by linear regression of a log-transformed tumor growth data set. The data set consists of the first observation that exceeded the endpoint volume used in analysis and the three consecutive observations that immediately preceded the attainment of this endpoint volume. The calculated TTE is usually less than the TP date, the day on which the animal was euthanized for tumor size. […] Any animal classified as having died from NTR (non-treatment-related) causes due to accident (NTRa) or due to unknown etiology (NTRu) were excluded from TTE calculations (and all further analyses). Animals classified as TR (treatment-related) deaths or NTRm (non-treatment-related death due to metastasis) were assigned a TTE value equal to the day of death. […]

A375 = assay: Single agent proliferation assay (CellTiter-Glo, 72 h); format: cell-based, human; conditions: A375, 72 h
Method: as §1

A375 cells [5] = assay: Proliferation assay (Alamar Blue, 96 hours) on parental and dose-escalated A375 cell lines; conditions: Homo sapiens
Method: Cancer cell lines were maintained in cell culture under standard media and serum conditions. For dose escalation studies, A375 cells were split, grown to about 40-60% confluence, and then treated with the initial dose of the specified drug.
Proliferation assays were used to track changes in sensitivity to the escalated agent(s) at appropriate time intervals (e.g. each month, although the timing is dependent on adequate cell numbers being available). For proliferation assays, cells were seeded in 96-well plates at 3000 cells per well in drug-free DMEM medium containing 10% FBS and allowed to adhere overnight prior to addition of compound or vehicle control. […] Test compounds were incubated with the cells for 96 hours at 37° C. and 5% CO2 in a humidified atmosphere. Alamar Blue 10% (v/v) was then added and incubated for 4 hours and fluorescent product was detected using a BMG FLUOstar plate reader. The average media only background value was deducted and the data analyzed using a 4-parameter logistic equation in GraphPad Prism. Paclitaxel was used as a positive control.

## CC(C)(C)c1nc(-c2cccc(NS(=O)(=O)c3c(F)cccc3F)c2F)c(-c2ccnc(N)n2)s1 [Dabrafenib]
G-361; Homo sapiens
  IC50: ~1.4 nM
A375 cells [1]
  Sensitivity of A375 cells (BRAF V600E): sensitive
[2]
  Anti-tumor response: insensitive
[3]; G6: 50 mg/kg po qd to end
  Deaths NTR: 0
  Deaths TR: 0
[3]; G7: 100 mg/kg po qd to end
  Deaths NTR: 0
  Deaths TR: 0
[3]; mono- and combination therapy groups
  Signs of treatment-related side effects: no noteworthy signs of treatment-related side effects
[4]; G6: 50 mg/kg po qd to end
  % TGD: 75%
  CR (complete regressions): 0
  Median TTE: 16.1 days
  PR (partial regressions): 0
  T-C: 6.9 days
  TFS (tumor free survivors): 0
  Tumors that attained the 2000 mm^3 endpoint volume: All
[4]; G7: 100 mg/kg po qd to end
  % TGD: 210%
  CR (complete regressions): 0
  Median TTE: 28.5 days
  PR (partial regressions): 1
  T-C: 19.3 days
  TFS (tumor free survivors): 0
  Tumors that attained the 2000 mm^3 endpoint volume: 13/15
[4]; G7: 100 mg/kg po qd to end, Day 45
  MTV (n) D45: 282 (2) imd
[4]; G7: 100 mg/kg po qd to end, listed as dabrafenib
  PR (partial regressions): One and one
[4]; G7: 100 mg/kg po qd to end, two tumors remaining on Day 45
  MTV: 282 mm^3
A375; Homo sapiens, A-375
  IC50: ~0.7 nM

## N#Cc1c(Oc2ccc(F)c(NC(=O)Cc3cccc(C(F)(F)F)c3)c2)ccc2nc(NC(=O)C3CC3)sc12 [TAK-632]
G-361
  IC50: 164 nM
A375
  IC50: 26 nM

## Cn1nnc2c(C(N)=O)ncn2c1=O [Temozolomide]
[3]; G10: 150 mg/kg po qd × 5
  Deaths NTR: 0
  Deaths TR: 0
[3]; G10: 150 mg/kg po qd × 5, nadir on Day 5
  Mean BW Nadir: −1.6% Day 5
[4]; G10: 150 mg/kg po qd × 5
  % TGD: 14%
  CR (complete regressions): 0
  Median TTE: 10.5 days
  PR (partial regressions): 0
  T-C: 1.3 days
  TFS (tumor free survivors): 0

## CC(=O)Nc1cccc(-n2c(=O)n(C3CC3)c(=O)c3c(Nc4ccc(I)cc4F)n(C)c(=O)c(C)c32)c1 [Trametinib]
A375 cells [5]; A-375, read-out: Relative IC50, Month 1, Par = Parental cell line
  IC50: 0.5 nM
A375 cells [5]; A-375, read-out: Relative IC50, Month 1, cell line BVD-523 (0.48 μM)
  IC50: 0.7 nM
A375 cells [5]; A-375, read-out: Relative IC50, Month 1, cell line Dab (15 nM Dab)
  IC50: 2.5 nM
A375 cells [5]; A-375, read-out: Relative IC50, Month 1, cell line Dab/523 (7.5 nM/0.24 μM)
  IC50: 3.1 nM
A375 cells [5]; A-375, read-out: Relative IC50, Month 1, cell line Tram (growing in 2 nM Tram)
  IC50: 2.2 nM
A375 cells [5]; A-375, read-out: Relative IC50, Month 2, Par = Parental cell line
  IC50: 0.4 nM
A375 cells [5]; A-375, read-out: Relative IC50, Month 2, cell line BVD-523 (0.8 μM)
  IC50: 24.3 nM
A375 cells [5]; A-375, read-out: Relative IC50, Month 2, cell line Dab (127 nM Dab)
  IC50: 1.1 nM
A375 cells [5]; A-375, read-out: Relative IC50, Month 2, cell line Dab/523 (12.5 nM/0.4 μM)
  IC50: 6.2 nM
A375 cells [5]; A-375, read-out: Relative IC50, Month 2, cell line Tra (8 nM Tram)
  IC50: 0.7 nM
A375 cells [5]; A-375, read-out: Relative IC50, Month 3, Par = Parental cell line
  IC50: 0.2 nM
A375 cells [5]; A-375, read-out: Relative IC50, Month 3, cell line Dab (3.2 μM Dab)
  IC50: 0.4 nM

## CCCS(=O)(=O)Nc1ccc(F)c(C(=O)c2c[nH]c3ncc(-c4ccc(Cl)cc4)cc23)c1F [Vemurafenib]
G-361; Homo sapiens
  IC50: 248 nM
A375; Homo sapiens, A-375
  IC50: 47 nM
